Like-named read-outs stand apart in the source and are kept apart here.
Tests used:
[1] = test system: Caco-2 cell monolayers; assay: Caco-2 cell permeability assay of peramivir with permeability enhancers; conditions: for Fold-Enhancement Over Control / ng peramivir transported/min: peramivir 15 μg/mL
[2] = test system: Caco-2 cells; assay: cytotoxicity of PPS at the concentrations used; assay type: cell-based; conditions: in the concentrations used (0.001% to 0.01%)
[3] = test system: influenza A and B; conditions: oral formulation, phase III clinical trial; cited from earlier work
[4] = human, in vivo; cited from earlier work
[5] = test system: viral neuraminidase; conditions: depending on the influenza strain; based on concentrations required for 50% inhibition of neuraminidase activity in vitro; cited from earlier work
[6] = test system: avian influenza virus (H5N1); conditions: cited from earlier work
[7] = test system: Caco-2 cell monolayers
[8] = enhancer concentration 0.05% in HBSS
[9] = enhancer concentration 0.10% in HBSS
[10] = enhancer concentration 0.20% in HBSS

For `CCCCCCCCCCCCCCCC[N+](C)(C)CCCS(=O)(=O)[O-]` [PPS, 3-(N,N-dimethylpalmitylammonio)propane sulfonate], the “peramivir permeability (in words)” value ([1]; PPS varying from 0.001% to 0.01% final concentration) was “substantially increased peramivir permeability” and the cytotoxicity [2] was “not cytotoxic”.
In the case of phosphatidylcholine, the “peramivir permeability enhancement in Caco-2 cell assays (in words)” value [1] is reported as “some potential for peramivir permeability enhancement”, the “Fold-Enhancement Over Control” value [1, 8] is reported as 2.11 fold and the ng peramivir transported/min [1, 8] is reported as 0.4 ng/min. For the same molecule, the “Fold-Enhancement Over Control” value [1, 9] was 2.11 fold, the ng peramivir transported/min [1, 9] was 0.4 ng/min and the “Fold-Enhancement Over Control” value [1, 10] was 7 fold. For the same molecule, the ng peramivir transported/min [1, 10] was 1.33 ng/min.
In the case of `CCC(CC)[C@H](NC(C)=O)[C@@H]1[C@H](O)[C@@H](C(=O)O)C[C@H]1NC(=N)N` [peramivir, (1S,2S,3S,4R)-3-[(1S)-1-Acetamido-2-ethyl-butyl]-4-(diaminomethylideneamino)-2-hydroxy-cyclopentane-1-carboxylic acid], the “antiviral activity against influenza A and B” value [3] is given as “did not reach statistical significance”, the oral bioavailability [4] is given as “very poor oral bioavailability” and the “potency as neuraminidase inhibitor relative to oseltamivir (Tamiflu®) and zanimivir” value [5] is given as 2 to 10 times. The sensitivity to peramivir [6] was “sensitive”.
With `CCCCCCCC/C=C\CCCCCCCC(=O)OCCOCC(OCCO)C1OCC(OCCO)C1OCCO` (stereo not drawn) [Tween-80] the “peramivir permeability enhancement in Caco-2 cell assays (in words)” value [1] was “negative”.
For `OCC(O)CO` [Glycerol, glycerol], the “peramivir permeability (in words)” value [7] was “substantial increase in peramivir permeability” and the peramivir permeability enhancement ([7]; human) was “Less than 150%”.
For `O=C([O-])c1ccccc1O.[Na+]` [sodium salicylate], the “peramivir permeability enhancement in Caco-2 cell assays (in words)” value [1] was “negative”.
With `CN1CCNCC1` [N-Methylpiperazine, N-methylpiperazine] the “peramivir permeability enhancement in Caco-2 cell assays (in words)” value [1] was “negative”.

Reference: patent US9579383B2, “Formulations for enhanced bioavailability of orally administered polar agents” (ALA WAI PHARMA, INC., priority 2007, dated 2017)
